Test results taken from paper PMC3118479 (Bioorganic & medicinal chemistry, 2011).

Columns and labels:
[1] = molecular target: human D2(long) (Homo sapiens, UniProt P14416); experiment: Competitive radioligand binding at D2 dopamine receptor with 125I-IABN; details: for D3:D2: Ki for D3 receptors/Ki for D2 receptors; for D4:D2: Ki for D4 receptors/Ki for D2 receptors
[2] = molecular target: human D2 receptors (Homo sapiens, UniProt P14416); experiment: Whole cell forskolin-dependent adenylyl cyclase inhibition assay, D2L HEK cells; assay type: cell-based
Sequence of human D2 receptors (P14416 whole entry): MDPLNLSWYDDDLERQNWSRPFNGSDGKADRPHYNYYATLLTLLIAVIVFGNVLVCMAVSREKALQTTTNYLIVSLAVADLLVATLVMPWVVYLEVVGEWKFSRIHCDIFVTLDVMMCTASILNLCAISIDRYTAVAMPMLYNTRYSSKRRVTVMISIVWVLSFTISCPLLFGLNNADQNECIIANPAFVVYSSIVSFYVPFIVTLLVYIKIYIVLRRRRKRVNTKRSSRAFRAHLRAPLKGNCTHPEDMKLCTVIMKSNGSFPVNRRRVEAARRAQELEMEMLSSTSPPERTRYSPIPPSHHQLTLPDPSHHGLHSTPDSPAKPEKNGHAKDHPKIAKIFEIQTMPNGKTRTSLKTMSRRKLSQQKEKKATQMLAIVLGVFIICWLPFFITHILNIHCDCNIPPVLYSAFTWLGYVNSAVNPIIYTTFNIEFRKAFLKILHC

[3] = molecular target: human D3 (Homo sapiens, UniProt P35462); experiment: Competitive radioligand binding at D3 dopamine receptor with 125I-IABN; details: relative to aripiprazole
Sequence of human D3 (P35462 whole entry): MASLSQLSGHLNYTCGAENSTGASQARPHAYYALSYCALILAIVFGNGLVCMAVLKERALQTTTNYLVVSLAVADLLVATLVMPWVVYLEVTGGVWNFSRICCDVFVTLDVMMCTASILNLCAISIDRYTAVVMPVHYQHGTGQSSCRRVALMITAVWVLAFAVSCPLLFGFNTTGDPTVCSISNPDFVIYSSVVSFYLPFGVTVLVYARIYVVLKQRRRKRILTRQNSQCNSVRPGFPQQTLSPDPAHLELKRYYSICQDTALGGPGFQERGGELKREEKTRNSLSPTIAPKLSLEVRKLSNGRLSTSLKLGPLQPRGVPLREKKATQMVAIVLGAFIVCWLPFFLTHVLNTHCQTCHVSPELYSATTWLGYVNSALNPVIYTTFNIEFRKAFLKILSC

[4] = molecular target: T1, human D4 (Homo sapiens, UniProt P21917); assay type: binding; details: human D4 expressed in HEK cells, [125I]ABN radioligand; mean ± SEM, at least three experiments
T1 sequence (P21917 1-419): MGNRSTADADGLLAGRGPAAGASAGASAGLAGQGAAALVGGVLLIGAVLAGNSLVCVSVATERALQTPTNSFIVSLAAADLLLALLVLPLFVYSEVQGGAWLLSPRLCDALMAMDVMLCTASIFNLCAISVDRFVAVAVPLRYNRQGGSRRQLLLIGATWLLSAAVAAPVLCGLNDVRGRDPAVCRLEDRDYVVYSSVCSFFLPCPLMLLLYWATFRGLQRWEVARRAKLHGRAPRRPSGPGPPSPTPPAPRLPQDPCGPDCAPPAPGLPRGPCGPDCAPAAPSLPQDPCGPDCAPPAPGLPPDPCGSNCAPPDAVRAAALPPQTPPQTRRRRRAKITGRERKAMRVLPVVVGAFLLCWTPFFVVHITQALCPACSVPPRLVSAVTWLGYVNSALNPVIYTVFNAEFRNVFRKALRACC

Sequence of human D2(long) (P14416 whole entry): as the sequence (P14416 whole entry) above

## O=C(O)C(=O)O.O=C1CCc2ccc(OCCCCN3CCC(n4c(=O)[nH]c5ccccc54)CC3)cc2N1 [Compound 3, 7-(4-(4-(2-Oxo-2,3-dihydro-1H-benzo[d]imidazol-1-yl)-piperidin-1-yl)butoxy)-3,4-dihydroquinolin-2(1H)-one oxalate]
[1]
  D3:D2: 6.1
  D4:D2: 7.1

## CN1CN(c2ccccc2)C2(CCN(CCCCOc3ccc4c(c3)NC(=O)CC4)CC2)C1=O.O=C(O)C(=O)O [Compound 5, 7-(4-(3Methyl-4-oxo-1-phenyl-1,3,8-triazaspiro[4.5]decan-8-yl)butoxy)-3,4-dihydro-quinolin-2(1H)-one oxalate]
[1]
  D3:D2: 0.7
  D4:D2: 1.4

## O=C(O)C(=O)O.O=C1CCc2ccc(OCCCCN3CCC(n4c(=O)[nH]c5cc(Cl)ccc54)CC3)cc2N1 [Compound 4, 7-(4-(4-(5-Chloro-2-oxo-2,3-dihydro-1H-benzo[d]imidazol-1-yl)piperidin-1-yl)butoxy)-3,4-dihydroquinolin-2(1H)-one oxalate]
[1]
  D3:D2: 1.9
  D4:D2: 4.4

## O=C(O)C(=O)O.O=C1CCc2ccc(OCCCCN3CCN(c4ccccc4OCCF)CC3)cc2N1 [Compound 7, 7-(4-(4-(2-(2-Fluoroethoxy)phenyl)piperazin-1-yl)butoxy)-3,4-dihydroquinolin-2(1H)-one oxalate]
[1]; relative to aripiprazole
  increase in affinity at D2 receptors: 12 fold
[2]
  intrinsic efficacy greater at D2 receptors compared to D3 receptors: 16–75%
[3]
  decrease in affinity at D3 receptors: 2 fold
[4]
  Ki D4: low affinity
